The record followed here is patent US7524836B2, “Nitrooxyderivative steroidal compounds” (Nicox S.A., priority 2001, dated 2009).

The nature of data set [1]: Test 4: inhibition of radical production from DPPH. The note with it: tested substance 10^-4 M (100 μM) in methanol, 30 minutes, absorbance at 517 nm. Here is the method: [drawing 21] • wherein test 4 is the following: it is an analytical determination carried out by adding portions of methanol solutions of the precursor of B or B1 at a 10^−4 M concentration, to a methanol solution of DPPH (2,2-diphenyl-1-picryl hydrazyl-free radical); after having maintained the solution at room temperature away from light for 30 minutes, it is read the absorbance at the wave length of 517 nm of the test solution and of a solution containing only DPPH in the same amount as in the test solution; and then the inhibition induced by the precursor towards radical production by DPPH is calculated as a percentage by means of the following formula: (1−AS/AC)×100 wherein AS and AC are respectively the absorbance values of the solution containing the test compound+DPPH and that of the solution containing only DPPH; the acceptance criterium of the compounds according to this test is the following: test 4 is met by B or B1 precursor compounds if the inhibition percentage as above defined is higher than or equal to 50%;
Test 4 is a […] test which affords to establish whether the orecursors of B or B1 inhibit the production of radicals from DPPH (2,2-diphenyl-1-picryl-hydrazyl) (M. S. Nenseter et Al., Atheroscler. Thromb. 15, 1338-1344, 1995). 100 μM solutions in methanol of the tested substances are prepared, and an aliquot of each of said solutions is added to a DPPH solution in methanol […]. After having stored the solutions at room temperature away from light for 30 minutes, their absorbances are read at the wave length of 517 nm, together with that of the corresponding DPPH solution at the same concentration. The absorbance decrease with respect to that of the solution of DPPH at the same concentration of the test solutions is determined. The effectiveness of the tested compound in inhibiting formation of radicals by DPPH is expressed by the following formula: (1−AS/AC)×100 wherein AS and AC are respectively the absorbance values of the solution containing the test compound together with DPPH and of the solution containing only DPPH; the compounds precursor of B or B1 meet test 4 when the inhibition percentage of radical production from DPPH, expressed as a percentage according to the above equation, is higher than or equal co 50% at the indicated concentration (10^−4 M).
The method is based on a colorimetric test in which DPPH (2,2-diphenyl-1-picryl-hydrazyl) is used as the compound-forming radicals (M. S. Nenseter et Al., Atheroscler. Thromb. 15, 1338-1344, 1995).
Solutions in methanol of the tested substances at a final concentration 100 μM are initially prepared. 0.1 ml of each of these solutions are added to aliquots of 1 ml of a methanol solution […] of DPPH and then the final volume is brought to 1.5 ml. After having stored the solutions at room temperature away from light for 30 minutes, the absorbance at the wave length of […] is read. It is determined the absorbance decrease with respect to the absorbance of a solution containing the same concentration of DPPH.
The efficacy of the test compound to inhibit the production of radicals, otherwise said antiradical activity, is expressed by the following formula: (1−AS/AC)×100 wherein AS and AC are, respectively, the absorbance values of the solution containing the test compound together+DPPH and of the solution containing only DPPH. […]
In general terms: Loss of DPPH colour is used to gauge radical scavenging.

The nature of data set [2]: Test 5: inhibition of radical production from Fe^II (desoxyribose degradation). The settings on record: 10^-4 M methanolic solution, 37° C. for one hour, absorbance at 532 nm. Here is the method: […]
Test 5 is a […] test wherein 0.1 ml aliquots of 10^−4 M methanolic solutions of the tested products are added to test tubes containing a solution formed by 0.2 ml of 2 mM desoxyribose, 0.4 ml of phosphate buffer pH 7.4 100 mM and 0.1 ml of 1 mM Fe^II(NH4)2(SO4)2 in 2 mM HCl. […] A pink coloration is developed the intensity of which is proportional to the quantity of desoxyribose undergone to radical oxidative degradation. The solutions are cooled at room temperature and their absorbances are read at 532 nm against the blank. The inhibition induced by the precursor of B or B1 or C=-TC-Y—H in comparison with the radical production by Fe^II is determined by means of the following formula: (1−AS/AC)×100 wherein AS and AC are respectively the absorbance values of the solution containing the tested compound+the iron salt and that of the solution containing only the iron salt, the compound meets test 5 when the inhibition percentage of radical production as above defined from the precursor of B or B1 or C=-TC-Y—H is higher than or equal to 50%. […]

Data set [3] has as its system rats treated or not treated with L-NAME. The arrangement: species or system rat (Long Evans). The note with it: rat, in vivo, ip; for GPT var. %: 100 mg/kg. Here is the method: In those groups of rats treated, respectively, with ursodesoxycholic acid and chenodeoxycholic acid and thereof corresponding compounds according to the present invention, GPT is determined.
At the end of the four weeks access to water is prevented and after 24 hours the animals are sacrificed.
1st group receiving L-NAME (group d-comparative) administered at the same time with 100 mg/Kg (0.25 mmoles/Kg) of ursodesoxycholic acid+49.5 mg/Kg (0.25 mmoles/Kg) of ferulic acid in the same above carrier, • c. 2nd group receiving L-NAME (group e) administered with 175 mg/Kg (0.25 mmoles/Kg) of the ursodesoxycholic derivative according to the invention (ref. ex. 1) in the same above carrier.

For data set [4] the test system is unchanged. The settings on record: rat, in vivo, ip.
Protocol: The endothelial dysfunction is evaluated by determining the damage the hepatic damage (GPT increase), and the vascular endothelium or cardiovascular damage (blood hypertension) induced by L-NAME admirnistration.
The animals (Long Evans rats, average weight 350-450 g) are divided n groups as herein below described. The group receiving L-NAME is treated for 4 weeks with said compound dissolved at the concentration of 400 mg/litre in drinking water. The following groups (No. 10 animals for group) are constituted:
• 1° group: treatment: only carrier (physiologic solution), • 2° group: trealtmrent: carrier +L-NAME, B) Groups Treated with the Drug: • 3° group: treatment: carrier+drug, • 4° group: treatment: carrier+drug+L-NAME.
Each drug is administered by intraperitoneal route once a day for 4 weeks.
Four hours after the last administration the blood-pressure is determined.
Damage to the vascular endothelium is determined, as said by the cardiovascular effects induced by L-NAME (increase of the blood pressure).
In this experiment vascular tolerability, i.e. the rise in blood pressure (vascular damage) was determined in the animals of groups b and c and expressed as percentages to that of the control group a, assumed to be 100%.

Each structure is given as a SMILES string. Read-outs that look alike come from different tables or passages of the source.

In the case of `O=C(O)C1CSCN1` (stereo not drawn) [4-thiazolidin carboxylic acid], the “% inhibition radical production from DPPH” value in data set [1] (100 µM) is on record as “does not inhibit”. In addition, the “% Radical Inhibition from Fe^II” value in data set [2] worked out at 100%.

Turning to `N[C@@H](CS)C(=O)O` [Cysteine], the “% inhibition radical production from DPPH” value in data set [1] (100 µM) turned out to be 100%.

As to `COc1cc(/C=C/C(=O)OCCCCO[N+](=O)[O-])ccc1OC(=O)CC[C@@H](C)[C@H]1CCC2C3C(CC[C@@]21C)[C@@]1(C)CC[C@@H](O)C[C@H]1C[C@@H]3O` (stereo partly drawn) [Example 1, 3-[4-[(3α,5β,7β)-3,7-dihydroxycolan-24-oiloxy]-3-methoxyphenyl]-2-propenoic acid 4-nitroxybutyl ester], the GPT var. % in data set [3] was found to be 103%. Moreover, the GPT variation % in data set [3] (175 mg/kg) stood at 123%.

On to `COc1cc(/C=C/C(=O)OCCCCO[N+](=O)[O-])ccc1OC(=O)CC[C@@H](C)[C@H]1CCC2C3C(CC[C@@]21C)[C@@]1(C)CC[C@@H](O)C[C@H]1C[C@H]3O` (stereo partly drawn) [Example 2, 3-[4-[(3α,5β,7α)-3,7-dihydroxycolan-24-oiloxy]-3-methoxyphenyl]-2-propenoic acid 4-nitroxybutyl ester], for which, in data set [3], the GPT var. % worked out at 105%.

For `CC(=O)N[C@@H](CSC(=O)CCCO[N+](=O)[O-])C(=O)OCC(=O)[C@@]1(O)CC[C@H]2[C@@H]3CCC4=CC(=O)C=C[C@]4(C)[C@H]3[C@@H](O)C[C@@]21C` [Example 3, (11β)-11,17-dihydroxy-21[N-acetyl-S-(4-nitroxybutyroyl)cysteinyloxy]-pregn-1,4-diene-3,20-dione], in data set [4] (10 mg/kg), the “Blood pressure variation %” value was 102%.

In the case of `CC(=O)N[C@@H](CSC(=O)CCCO[N+](=O)[O-])C(=O)OCC(=O)[C@@]1(O)CC[C@H]2[C@@H]3CCC4=CC(=O)CC[C@]4(C)[C@H]3[C@@H](O)C[C@@]21C` [Example 4, (11β)-11,17-Dihydroxy-21[N-acetyl-S-(4-nitroxybutyroyl)cysteinyloxy]-pregn-4-ene-3,20-dione], the “Blood pressure variation %” value in data set [4] (10 mg/kg) is listed as 98%.

With `CC(=O)N[C@@H](CSC(=O)CCCO[N+](=O)[O-])C(=O)OCC(=O)[C@@]1(O)[C@H](C)C[C@H]2[C@@H]3CCC4=CC(=O)C=C[C@]4(C)[C@@]3(F)[C@@H](O)C[C@@]21C` [Example 5, (11β,16α)-9-Fluoro-11,17-dihydroxy-21[N-acetyl-S-(4-nitroxybutyroyl)cysteinyloxy]-16-methylpregn-1,4-diene-3,20-dione], the “Blood pressure variation %” value in data set [4] (5 mg/kg) is listed as 103%; in data set [4] (42.5 mg/kg), 125%.

Turning to `COc1cc(/C=C/C(=O)O)ccc1O` [Ferulic acid], the “% inhibition radical production from DPPH” value in data set [1] (100 µM) was 100%.

With `O=C(O)c1cc(O)ccc1O` [Gentisic acid], the “% inhibition radical production from DPPH” value in data set [1] (100 µM) amounted to 80%.

Take `CC(=O)N[C@@H](CS)C(=O)O` [N-acetylcysteine]: the “% inhibition radical production from DPPH” value in data set [1] turned out to be 100%.

As for `C[C@H](CCC(=O)O)[C@H]1CC[C@H]2[C@@H]3[C@H](O)C[C@@H]4C[C@H](O)CC[C@]4(C)[C@H]3CC[C@]12C` [chenodeoxycholic acid], the GPT var. % in data set [3] is on record as 150%.

Consider `C[C@@H]1C[C@H]2[C@@H]3CCC4=CC(=O)C=C[C@]4(C)[C@@]3(F)[C@@H](O)C[C@]2(C)[C@@]1(O)C(=O)CO` [dexamethasone], for which the “Blood pressure variation %” value in data set [4] (5 mg/kg) is on record as 125%.

In the case of `C[C@]12CCC(=O)C=C1CC[C@@H]1[C@@H]2[C@@H](O)C[C@@]2(C)[C@H]1CC[C@]2(O)C(=O)CO` [hydrocortisone], the “Blood pressure variation %” value in data set [4] (10 mg/kg) stood at 115%.

Consider `C[C@]12C=CC(=O)C=C1CC[C@@H]1[C@@H]2[C@@H](O)C[C@@]2(C)[C@H]1CC[C@]2(O)C(=O)CO` [prednisolone], for which the “Blood pressure variation %” value in data set [4] (10 mg/kg) was found to be 119%.

Consider `C[C@H](CCC(=O)O)[C@H]1CC[C@H]2[C@@H]3[C@@H](O)C[C@@H]4C[C@H](O)CC[C@]4(C)[C@H]3CC[C@]12C` [ursodesoxycholic acid], for which, in data set [3], the GPT var. % is recorded as 130%.
